# Test results: patent US20170314033A1, “HERBICIDE-RESISTANT TARAXACUM KOK-SAGHYZ AND TARAXACUM BREVICORNICULATUM” (Ohio State Innovation Foundation, priority 2016, published 2017)
# Assays:
# non-transgenic TK = test: kanamycin selection, elimination of non-transgenic TK; assay type: in vivo, Taraxacum kok-saghyz; conditions: ½ MS medium, data not shown
# Description: (§1) Roots then were blotted dry on filter paper and transferred to co-culture medium (solid 1⁄2 MS medium with 200 μm acetosyringone). After 3 days of co-culture with agrobacteria, root fragments were washed sequentially with water and liquid 1⁄2 MS medium with 400 mg L^-1 Timentin, and then transferred to solid 1⁄2 MS medium with 400 mg L^-1 Timentin. […] After 3 weeks further selection, transgene events were validated in selected plants. Root fragments of TK and TB were also inoculated with A. rhizogenes […] wild type using the same method. After recovery, root fragments were transferred to 1⁄2 MS medium with 400 mg L^-1 Timentin for regeneration. Approximately 30 root fragments were used for each replicate and three replicates were used for each treatment. […] Transgene presence was validated by PCR analysis (FIGS. 5A and B) and transgene expression at the transcription level was confirmed by RT-PCR (FIGS. 6A and B) using leaf tissue.
# non-transgenic TB = test: kanamycin selection, elimination of non-transgenic TB; assay type: in vivo, T. brevicorniculatum; conditions: ½ MS medium, data not shown
# Description: as §1
# [1] = system: transgenic herbicide-resistant rubber-producing dandelions expressing the bar gene; test: glufosinate treatment of mature transgenic (bar gene) plants; assay type: in vivo, Taraxacum kok-saghyz and Taracum brevicorniculatum; conditions: for survival rate: formulated under the brand BASTA, mature transgenic plants
# Description: Applicants show the successful generation of rubber-producing dandelions species, which display resistance to broad leaf herbicide glufosinate. Using similar methods as described in Example 1, transgenic plants were generated using Agrobacterium tumafaciens-mediated transformation of leaf discs or root fragments, followed by regeneration of transgenic plants, which were then acclimated and transferred to pots within greenhouses. The bar gene, was expressed singly or in combination with other genes of interest in two rubber-producing dandelion species, Taraxacum kok-saghyz and Taracum brevicorniculatum. Table 1 describes the list of gene constructs used for the generation of transgenic herbicide-resistant dandelions.
# Confirmation of a transgenic event was validated by PCR and resistance confirmed through treatment of mature transgenic plants with varying doses of glufosinate (e.g., 25 mg/L, 50 mg/L, 100 mg/L, 200 mg/L, etc.) formulated under the brand BASTA®. Treatment of plants with glufosinate at 25 mg/L yielded a 100% survival rate, 50 mg/L yielded a 50% survival rate, 150 mg/L yielded a 100% survival rate, and 200 mg/L yielded a 50% survival rate.
# [2] = system: wild-type plants (dandelions); test: glufosinate exposure of wild-type dandelions; assay type: in vivo; conditions: FIG. 11
# Description: FIG. 11: Comparison of wild-type dandelions and exemplary herbicide-resistant rubber-producing dandelions after exposure to herbicide.
Compound,kanamycin concentration effective at eliminating non-transgenic plants (non-transgenic TK) [mg/L],kanamycin concentration effective at eliminating non-transgenic plants (non-transgenic TB) [mg/L],"herbicide tolerance after exposure to glufosinate ([1]; exemplary dandelions of the invention, FIG. 11)","injury as a result of exposure to glufosinate ([1]; exemplary plant of the invention, FIGS. 9-10)",survival rate ([1]; glufosinate at 25 mg/L) [%],survival rate ([1]; glufosinate at 50 mg/L) [%],survival rate ([1]; glufosinate at 150 mg/L) [%],survival rate ([1]; glufosinate at 200 mg/L) [%],injury when exposed to glufosinate [2]
NC[C@H]1O[C@H](O[C@H]2[C@H](O)[C@@H](O[C@H]3O[C@H](CO)[C@@H](O)[C@H](N)[C@H]3O)[C@H](N)C[C@@H]2N)[C@H](O)[C@@H](O)[C@@H]1O [kanamycin],10,20,,,,,,,
CP(=O)(O)CCC(N)C(=O)O (stereo not drawn) [glufosinate],,,varying degrees herbicide tolerance,little to no injury,100,50,100,50,significant injury and/or death
